Patent US7049271B2, “Phenyl-substituted 2-enamino-ketonitriles” (Bayer Aktiengesellschaft, priority 2000, dated 2006)

SMILES | melting point
CN/C(=C(/C#N)C(=O)c1ccc(Cl)cc1)c1ccc(Cl)cc1 [Example 3, 2-(4-chlorobenzoyl)-3-(4-chlorophenyl)-3-(N-methylamino)-propenonitrile] | 182 °C
C/C(NC1CC1)=C(\C#N)C(=S)c1ccc(Cl)cc1 [Example 8, 2-[(4-chlorophenyl)-thiocarbonyl]-3-(N-cyclopropylamino)-crotononitrile] | 215 °C
